# According to PubChem BioAssay (NCI):
#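 1) Cells in 96-well plates. 2) Compound, 48 h, 5 concentrations. 3) Linear interpolation between surrounding doses. 4) Unreached endpoint = highest concentration. At the TGI there is no net growth.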
# What was measured:
# Assay in all cases: growth of human tumour cells (NCI), 48 h
# MDA-MB-231 breast = test system: MDA-MB-231 breast
# BT-549 breast = test system: BT-549 breast
# HCT-15 colon = test system: HCT-15 colon
# T-47D breast = test system: T-47D breast
# IGROV1 ovarian = test system: IGROV1 ovarian
# SN12C renal = test system: SN12C renal
# SK-MEL-2 melanoma = test system: SK-MEL-2 melanoma
# SW-620 colon = test system: SW-620 colon
# PC-3 prostate = test system: PC-3 prostate
# SK-MEL-28 melanoma = test system: SK-MEL-28 melanoma
# SK-OV-3 ovarian = test system: SK-OV-3 ovarian
# UACC-62 melanoma = test system: UACC-62 melanoma
# LOX IMVI melanoma = test system: LOX IMVI melanoma
# 786-0 renal = test system: 786-0 renal
# OVCAR-8 ovarian = test system: OVCAR-8 ovarian
# EKVX NSCLC = test system: EKVX NSCLC
# SR leukemia = test system: SR leukemia
# HS 578T breast = test system: HS 578T breast
# SNB-75 CNS = test system: SNB-75 CNS
# HOP-92 NSCLC = test system: HOP-92 NSCLC
Structure (SMILES),TGI (MDA-MB-231 breast),TGI (BT-549 breast),TGI (HCT-15 colon),TGI (T-47D breast),TGI (IGROV1 ovarian),TGI (SN12C renal),TGI (SK-MEL-2 melanoma),TGI (SW-620 colon),TGI (PC-3 prostate),TGI (SK-MEL-28 melanoma),TGI (SK-OV-3 ovarian),TGI (UACC-62 melanoma),TGI (LOX IMVI melanoma),TGI (786-0 renal),TGI (OVCAR-8 ovarian),TGI (EKVX NSCLC),TGI (SR leukemia),TGI (HS 578T breast),TGI (SNB-75 CNS),TGI (HOP-92 NSCLC)
O=C(O)C1CC(C2CCCCN2)CN2CCCCC12 (configuration not stated),> 100 µM,> 100 µM,> 100 µM,> 100 µM,> 100 µM,> 100 µM,> 100 µM,> 100 µM,> 100 µM,> 100 µM,> 100 µM,> 100 µM,> 100 µM,> 100 µM,> 100 µM,> 100 µM,> 100 µM,> 100 µM,> 100 µM,> 100 µM
CCCCCCCCCC(=O)NCCc1c[nH]c2ccc(OC)cc12,30.9 µM,32.9 µM,36.2 µM,54 µM,30 µM,33.1 µM,30.5 µM,34.5 µM,28.9 µM,33.1 µM,31.7 µM,30.4 µM,27.6 µM,38.7 µM,32 µM,89.8 µM,> 100 µM,42.8 µM,44 µM,31.3 µM
COc1ccc2nc3cc([N+](=O)[O-])ccc3c(NNc3ccc([N+](=O)[O-])cc3)c2c1,> 91.6 µM,> 100 µM,> 100 µM,> 100 µM,> 59 µM,> 100 µM,> 96.2 µM,> 64.7 µM,> 100 µM,> 100 µM,> 100 µM,> 50.7 µM,> 100 µM,> 100 µM,> 100 µM,> 100 µM,> 69 µM,> 100 µM,> 100 µM,67.7 µM
Cc1nn(C(=O)c2ccc(Cl)cc2)c2c1C(c1ccccc1O)SC(N)=N2 (configuration not stated),> 10 µM,> 10 µM,> 10 µM,> 10 µM,> 10 µM,> 10 µM,> 10 µM,> 10 µM,> 10 µM,> 10 µM,> 10 µM,> 10 µM,> 10 µM,> 10 µM,> 10 µM,> 10 µM,> 10 µM,> 10 µM,> 10 µM,> 10 µM
CC1(C)CCCC2CC2CCC(C)(C)C1=O (configuration not stated),> 100 µM,> 100 µM,> 100 µM,> 100 µM,> 100 µM,> 100 µM,> 100 µM,> 100 µM,> 100 µM,> 100 µM,> 100 µM,> 100 µM,> 100 µM,86.6 µM,> 100 µM,> 100 µM,45.6 µM,> 100 µM,> 100 µM,> 100 µM
CC(C)C1CC(CO)(CNc2nc(N)nc(Cl)c2/C=N\O)C1 (configuration not stated),31.6 µM,28.7 µM,32.7 µM,4.91 µM,50.1 µM,> 89.5 µM,26.5 µM,61.2 µM,26.5 µM,26.1 µM,30.2 µM,25.4 µM,22.5 µM,46.4 µM,50.3 µM,11.7 µM,> 54.2 µM,53.8 µM,43.6 µM,35.2 µM
O=c1sc(Nc2ccc3ccccc3c2Cl)nc2ccccc12,> 100 µM,> 100 µM,> 100 µM,> 100 µM,> 100 µM,> 100 µM,> 100 µM,> 100 µM,> 100 µM,> 100 µM,> 100 µM,> 100 µM,> 100 µM,> 100 µM,,> 100 µM,> 100 µM,> 100 µM,> 100 µM,> 100 µM
CC(O)CC(=O)CO[C@H]1[C@H](O)[C@@H](O)[C@@H](O)[C@@H]2NC(=O)c3c(cc4c(c3O)OCO4)[C@H]21 (some centres not stated),0.545 µM,0.482 µM,,0.109 µM,0.256 µM,0.784 µM,0.261 µM,> 100 µM,0.303 µM,8.03 µM,,0.682 µM,0.117 µM,0.485 µM,1.53 µM,0.14 µM,0.125 µM,0.153 µM,0.404 µM,0.64 µM
COc1ccc(C(OC(=O)[C@H](O[Si](C)(C)C(C)(C)C)[C@@H](NC(=O)c2ccccc2)c2ccccc2)c2ccc(OC)cc2)cc1,> 100 µM,> 100 µM,> 100 µM,> 100 µM,> 100 µM,> 100 µM,> 100 µM,> 100 µM,> 100 µM,,,> 100 µM,> 100 µM,> 100 µM,> 100 µM,> 100 µM,> 100 µM,> 100 µM,> 100 µM,> 100 µM
CC1=NN(c2cccc(Cl)c2)C2(C1=Cc1cccs1)C(Cl)C(=O)N2c1nc2ccccc2s1 (configuration not stated),41.4 µM,49.4 µM,51.7 µM,> 100 µM,> 100 µM,,36.5 µM,> 100 µM,48.7 µM,> 100 µM,,,42.1 µM,29.1 µM,48.2 µM,42.8 µM,48.5 µM,68.7 µM,86.3 µM,52.7 µM
